Columns and labels:
Glycine max = assay: Inhibition of soybean LOX using linoleic acid as substrate at 0.5 mM preincubated for 10 mins followed by substrate addition measured after 6 mins by spectrophotometric analysis
[1] = Inhibition of soybean LOX using linoleic acid as substrate preincubated for 10 mins followed by substrate addition measured after 6 mins by spectrophotometric analysis; parameters: species or system Glycine max
[2] = biological target: Urease (Canavalia ensiformis) (UniProt P07374); assay: Inhibition of jack beans urease assessed as hydrolysis of urea into ammonia at 0.5 mM preincubated for 10 mins followed by urea addition measured after 10 mins by Berthelot assay
Urease = Urease (Canavalia ensiformis, UniProt P07374); assay: Inhibition of jack beans urease assessed as hydrolysis of urea into ammonia preincubated for 10 mins followed by urea addition measured after 10 mins by Berthelot assay
Chain of Urease (P07374 whole entry): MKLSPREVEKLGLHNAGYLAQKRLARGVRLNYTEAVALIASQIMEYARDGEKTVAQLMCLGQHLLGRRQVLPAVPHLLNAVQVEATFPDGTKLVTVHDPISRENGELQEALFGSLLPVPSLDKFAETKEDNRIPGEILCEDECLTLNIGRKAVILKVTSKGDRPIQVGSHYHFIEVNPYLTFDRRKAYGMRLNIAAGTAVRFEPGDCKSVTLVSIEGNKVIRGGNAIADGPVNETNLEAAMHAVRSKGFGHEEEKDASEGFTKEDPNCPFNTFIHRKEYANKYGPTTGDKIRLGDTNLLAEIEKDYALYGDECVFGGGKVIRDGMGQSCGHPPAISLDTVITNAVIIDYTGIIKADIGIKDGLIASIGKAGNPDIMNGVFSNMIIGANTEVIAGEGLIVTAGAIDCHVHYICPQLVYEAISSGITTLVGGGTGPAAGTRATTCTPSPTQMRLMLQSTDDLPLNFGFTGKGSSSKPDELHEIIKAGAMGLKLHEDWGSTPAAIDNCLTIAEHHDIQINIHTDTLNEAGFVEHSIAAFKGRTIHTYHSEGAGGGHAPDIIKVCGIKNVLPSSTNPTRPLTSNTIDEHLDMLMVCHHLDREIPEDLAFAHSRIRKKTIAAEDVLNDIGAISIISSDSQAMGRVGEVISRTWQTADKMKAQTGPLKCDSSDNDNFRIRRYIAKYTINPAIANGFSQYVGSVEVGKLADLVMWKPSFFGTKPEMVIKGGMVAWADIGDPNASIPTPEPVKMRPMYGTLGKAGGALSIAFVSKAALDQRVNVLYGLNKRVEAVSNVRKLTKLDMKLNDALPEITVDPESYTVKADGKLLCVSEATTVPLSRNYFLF

Chain of Urease (Canavalia ensiformis) (P07374 whole entry, looked up): as the sequence (P07374 whole entry) above

SMILES | inhibition (Glycine max) [%] | IC50 [1] [µM] | inhibition [2] [%] | IC50 (Urease) [µM]
FC(F)(F)c1ccc(-c2[nH]c3ccccc3c2-c2nc(-c3ccccc3)c(-c3ccccc3)n2-c2ccccc2)cc1 | 86.2 | 117 | – | –
FC(F)(F)c1ccc(-c2[nH]c3ccccc3c2-c2nc(-c3ccccc3)c(-c3ccccc3)n2-c2ccc(Cl)cc2)cc1 | 62.1 | 215 | 70.3 | 4.75
COc1ccc(-n2c(-c3c(-c4ccccc4)[nH]c4ccc(Br)cc34)nc(-c3ccccc3)c2-c2ccccc2)cc1 | 57.5 | 265 | 88.7 | 4.62
O=c1cc(-c2ccccc2)oc2cc(O)c(O)c(O)c12 [BAICALEIN] | 93.7 | 22.4 | – | –
Fc1ccc(-n2c(-c3c(-c4ccc(Br)cc4)[nH]c4ccccc34)nc(-c3ccccc3)c2-c2ccccc2)cc1 | 87.8 | 162 | 86.7 | 12.1
Clc1ccc(-n2c(-c3c(-c4ccccc4)[nH]c4ccc(Br)cc34)nc(-c3ccccc3)c2-c2ccccc2)cc1 | 83.2 | 101 | 87.8 | 4.66
Brc1ccc(-c2[nH]c3ccccc3c2-c2nc(-c3ccccc3)c(-c3ccccc3)n2-c2ccc(Br)cc2)cc1 | 61.1 | 173 | 87.8 | 11.3
Fc1ccc(-n2c(-c3c(-c4ccc(Cl)cc4)[nH]c4ccccc34)nc(-c3ccccc3)c2-c2ccccc2)cc1 | 84.5 | 89 | 85.6 | 0.44
Clc1ccc(-c2[nH]c3ccccc3c2-c2nc(-c3ccccc3)c(-c3ccccc3)n2-c2ccccc2)cc1 | 58.3 | 276 | 80.3 | 0.37
Brc1ccc2[nH]c(-c3ccccc3)c(-c3nc(-c4ccccc4)c(-c4ccccc4)n3-c3ccccc3)c2c1 | 97.2 | 134 | – | –
Brc1ccc(-n2c(-c3c(-c4ccccc4)[nH]c4ccc(Br)cc34)nc(-c3ccccc3)c2-c2ccccc2)cc1 | 78.5 | 178 | 93.2 | 0.15
Fc1ccc(-n2c(-c3c(-c4ccc(C(F)(F)F)cc4)[nH]c4ccccc34)nc(-c3ccccc3)c2-c2ccccc2)cc1 | 80.2 | 106 | 85.2 | 0.16
Cc1ccc(-n2c(-c3c(-c4ccc(C(F)(F)F)cc4)[nH]c4ccccc34)nc(-c3ccccc3)c2-c2ccccc2)cc1 | 90.3 | 83 | 79.7 | 0.12
Cc1ccc(-n2c(-c3c(-c4ccccc4)[nH]c4ccc(Br)cc34)nc(-c3ccccc3)c2-c2ccccc2)cc1 | 81.4 | 143 | – | –
Brc1ccc(-c2[nH]c3ccccc3c2-c2nc(-c3ccccc3)c(-c3ccccc3)n2-c2ccccc2)cc1 | 59.3 | 197 | 89.4 | 4.81
COc1ccc(-n2c(-c3c(-c4ccc(Br)cc4)[nH]c4ccccc34)nc(-c3ccccc3)c2-c2ccccc2)cc1 | 61.7 | 206 | 85.2 | 29.1

Source: ChEMBL document CHEMBL3621141, “Discovery of indole-based tetraarylimidazoles as potent inhibitors of urease with low antilipoxygenase activity” (Eur J Med Chem, 2015)
